For series [1], the target named is T1, H^+,K^+ adenosine triphosphatase (Sus scrofa, UniProt P19156).
T1 construct: hog stomach was homogenized and subjected to ultracentrifugation to obtain a microsome fraction; from tissue; host or cells: hog stomach, microsome fraction (discontinuous Ficoll gradient)
Put plainly: H+,K+ adenosine triphosphatase inhibition (proton pump inhibition). Type of series: biochemical, hog. How it is done: Proton pump inhibition was evaluated by the H^+,K^+ adenosine triphosphatase (to be referred to as "H^+,K^+ ATPase" hereinafter)inhibition.
That is, hog stomach was homogenized and subjected to ultracentrifugation to obtain a microsome fraction, and the microsomes were subjected to discontinuous density gradient ultracentrifugation using 0 and 9% Ficoll solutions to obtain a fraction containing H^+,K^+ ATPase. The H^+,K^+ ATPase activity was determined by measuring the released inorganic phosphorus using ATP as the substrate and an inorganic phosphorus measuring reagent PiSET(IATRON) manufactured by IATRON.

In series [2] the test system is Pylorus ligation ulcer. Put plainly: Pylorus ligation ulcer. The class given is in vivo, Wistar male rats. The note with it: Rattus norvegicus; oral, 14 hours after pylorus ligation; read-out: Antiulcer activity, Pylorus ligation ulcer, ED50 value. The protocol:
(Test Example 4) Pylorus ligation ulcer
Basically according to the method of Shay et al. (Gastroenterology, vol.5, pp.43-61, 1945), each of the compounds shown in Examples was orally administered to Wistar male rats which have been subjected to fasting of 48 hours (free drinking). After 30 minutes of the compound administration,the pylorus of each rat was ligated.
After 14 hours of standing, the stomach was excised. The length and width of each ulcer developed in the fore-stomach part were measured under a stereoscopic microscope to calculate the ulcer area (length×width). In accordance with the method of Takagi et al. (Japan. J. Pharmacol., vol.24, pp.357-361, 1974), ulcer index was calculated based on the total ulcer area per animal. The dose of each test compound required to inhibit 50% of the ulcer index of the control group was calculated (ED50).

The nature of series [3]: Acute toxicity test. The note with it: mouse, in vivo; oral, mice, one week observation. From the text: (Test Example 6) Acute toxicity test
Each of the compounds shown in Examples was orally administered to three ICR male mice per group.

The test system of series [4] is gastric acid secretion. Put plainly: Gastric acid secretion inhibition activity (pylorus-ligated, histamine-stimulated rats). Type of series: in vivo, Sprague-Dawley (SD) male rats. The note with it: Rattus norvegicus; 30 mg/kg oral; pylorus ligated 3 hours later; histamine hydrochloride 30 mg/kg s.c.; total acidity over 3 hours; read-out: Acid secretion inhibition rate (%). The protocol: (Test Example 2) Gastric acid secretion inhibition activity
Basically according to the method of Satoh et (Journal of Pharmacology and Experimental Therapeutics, vol.248, pp.806-815, 1988), each of the compounds shown in Examples was orally administered at a dose of 30 mg/kg to Sprague-Dawley (SD) male rats which have been subjected to fasting of 24 hours (free drinking).
After 3 hours of the compound administration, the pylorus of each rat was ligated under urethane anesthesia, and 30 mg of histamine hydrochloride per Kg was administered to the rat by subcutaneous injection. After 3 hours of the ligation, the gastric juice was collected to measure its volume and calculate total acidity (mEqH^+ /3 hours) by sodium hydroxide titration. The inhibition rate (%) was calculated by the following formula in which A represents the total gastric juice acidity of control group rat and B represents the total gastric juice acidity of test compound-administered group rat. [formula]

The subject of series [5] is Stress ulcer. Put plainly: Stress ulcer. The class given is in vivo, Wistar male rats. The note with it: Rattus norvegicus; oral, 7 hours stress loading in water bath at 23° C.; read-out: Antiulcer activity, Stress ulcer, ED50 value. The protocol:
(Test Example 3) Stress ulcer
Basically according to the method of Takagi et al. (Japanese Journal of Pharmacology (to be referred to as "Japan. J. Pharmacol." hereinafter), vol.18, pp.9-18, each of the compounds shown in Examples was orally administered to Wistar male rats which have been subjected to fasting of 24 hours (free drinking). Each rat was transferred into a stress cage 30 minutes thereafter and subjected to stress loading by suspending the cage in a water bath controlled at 23° C. to such a depth that the rat was soaked up to its breast.
After 7 hours of the stress loading, the rat was recovered from the water bath to excise the stomach. The length (mm) of each ulcer developed in the stomach was measured under a stereoscopic microscope, and the total length of ulcers per one animal was used as an ulcer index. The dose of each test compound required to inhibit 50% of the ulcer index of the control group was calculated (ED50). The results are shown in Table 3, together with the results of the following pylorus ligation ulcer test.

[6] abbreviates: H+,K+ ATPase fraction from hog stomach microsomes, ATP substrate, released inorganic phosphorus, read-out: Enzyme inhibition IC50 value (converted).

Like-named read-outs stand apart in the source and are kept apart here.

T1 sequence (P19156 2-1034 limits assumed): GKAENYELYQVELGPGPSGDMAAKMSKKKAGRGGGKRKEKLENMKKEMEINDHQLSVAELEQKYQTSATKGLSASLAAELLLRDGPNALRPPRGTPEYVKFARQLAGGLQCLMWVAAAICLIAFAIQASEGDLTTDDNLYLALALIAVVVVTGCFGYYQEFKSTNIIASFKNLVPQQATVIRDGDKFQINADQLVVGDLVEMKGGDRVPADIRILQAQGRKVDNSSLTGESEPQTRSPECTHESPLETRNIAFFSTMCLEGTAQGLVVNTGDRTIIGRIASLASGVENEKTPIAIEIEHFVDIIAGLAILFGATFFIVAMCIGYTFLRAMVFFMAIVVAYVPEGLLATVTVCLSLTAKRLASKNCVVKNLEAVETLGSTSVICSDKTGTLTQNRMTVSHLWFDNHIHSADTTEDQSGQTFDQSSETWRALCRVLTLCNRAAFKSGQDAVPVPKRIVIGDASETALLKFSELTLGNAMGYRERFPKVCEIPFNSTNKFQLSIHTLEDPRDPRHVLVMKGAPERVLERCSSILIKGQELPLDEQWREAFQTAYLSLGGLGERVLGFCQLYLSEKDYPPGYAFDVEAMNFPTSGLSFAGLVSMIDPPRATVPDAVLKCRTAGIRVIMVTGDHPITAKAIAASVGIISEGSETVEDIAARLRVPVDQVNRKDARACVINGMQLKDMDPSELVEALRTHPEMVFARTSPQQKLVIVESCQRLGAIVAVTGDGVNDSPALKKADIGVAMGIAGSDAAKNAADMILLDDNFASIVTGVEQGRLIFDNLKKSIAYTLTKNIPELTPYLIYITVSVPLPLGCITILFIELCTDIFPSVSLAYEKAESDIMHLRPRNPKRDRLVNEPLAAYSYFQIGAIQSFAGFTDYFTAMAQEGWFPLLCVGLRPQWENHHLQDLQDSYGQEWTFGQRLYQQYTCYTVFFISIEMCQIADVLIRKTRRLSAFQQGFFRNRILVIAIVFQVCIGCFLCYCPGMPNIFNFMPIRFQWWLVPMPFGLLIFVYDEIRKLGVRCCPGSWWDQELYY
T1 sequence (P18434 whole entry partner): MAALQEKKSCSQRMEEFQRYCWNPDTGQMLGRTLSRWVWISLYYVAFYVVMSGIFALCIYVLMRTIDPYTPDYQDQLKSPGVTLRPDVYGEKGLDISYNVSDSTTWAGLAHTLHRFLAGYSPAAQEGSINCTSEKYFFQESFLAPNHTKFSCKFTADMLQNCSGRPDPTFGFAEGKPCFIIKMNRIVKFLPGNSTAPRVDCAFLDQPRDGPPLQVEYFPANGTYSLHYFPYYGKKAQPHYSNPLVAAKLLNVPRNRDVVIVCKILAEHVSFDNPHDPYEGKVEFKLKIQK

On to `CCCOCC#Cc1nc(C(=O)OC)c(C(=O)OC)nc1C#CCOCCC` [Example 1, 5,6-bis(3-n-propoxy-1-propynyl)pyrazine-2,3-dicarboxylic acid dimethyl ester], for which the IC50 in series [1] (setting [6]) was 87.5 µM. In series [2], the median effective dose (ED50) stood at 28 mg/kg. Also, the LD50 at 168 h in series [3] was above 1000 mg/kg. Moreover, in series [4], the inhibition in vivo at 30 mg/kg stood at 50%.
Consider `COCCCC#Cc1nc(C(=O)OC)c(C(=O)OC)nc1C#CCCCOC` [Example 2, 5,6-bis(5-methoxy-1-pentynyl)pyrazine-2,3-dicarboxylic acid dimethyl ester], for which the ED50 stood at 66 mg/kg in series [2] and 60 mg/kg in series [5]. The compound also gave an LD50 at 168 h in series [3] above 1000 mg/kg. The inhibition in vivo at 30 mg/kg in series [4] is 66%.
`CCCOCC#Cc1nc(C(=O)O)c(C(=O)O)nc1C#CCOCCC` [Example 5, 5,6-bis(3-n-propoxy-1-propynyl)pyrazine-2,3-dicarboxylic acid]: the inhibition in vivo at 30 mg/kg in series [4] worked out at 61%.
Take `COCCC#Cc1nc2ccccc2nc1C#CCCOC` [Example 12, 2,3-bis(4-methoxy-1-butynyl)quinoxaline]: the half-maximal inhibitory concentration (IC50) in series [1] (setting [6]) was 279 µM. This compound also had an LD50 at 168 h in series [3] above 1000 mg/kg. In addition, the ED50 in series [5] is 24 mg/kg. The inhibition in vivo at 30 mg/kg in series [4] turned out to be 41%.
In the case of `CCOC(C)(C)C#Cc1nc2ccccc2nc1C#CC(C)(C)OCC` [Example 13, 2,3-bis(3-ethoxy-3-methyl-1-butynyl)quinoxaline], the IC50 in series [1] (setting [6]) is 31.4 µM.
Still for that read-out and setting: for `CC[C@@H](C#Cc1nc2ccccc2nc1C#C[C@H](CC)OCCOC)OCCOC` [Example 18, 2,3-bis((S)-3-(2-methoxyethoxy)-1-pentynyl)quinoxaline] the value was 124 µM.
Consider `CC[C@H](C#Cc1nc2ccccc2nc1C#C[C@@H](CC)OCCOC)OCCOC` [Example 19, 2,3-bis((R)-3-(2-methoxyethoxy)-1-pentynyl)quinoxaline], for which the inhibition in vivo at 30 mg/kg in series [4] was 28%.
For the compound `CC[C@@H](C#Cc1nc2ccccc2nc1C#C[C@@H](CC)OCCOC)OCCOC` [Example 21, 2-((R)-3-(2-methoxyethoxy)-1-pentynyl)-3-((S)-3-(2-methoxyethoxy)-1-pentynyl)quinoxaline], the half-maximal inhibitory concentration (IC50) in series [1] (setting [6]) is 102 µM.
Still for that read-out and setting: for `CCOCCO[C@H](C#Cc1nc2ccccc2nc1C#C[C@H](CC)OCCOCC)CC` [Example 22, 2,3-bis((S)-3-(2-ethoxyethoxy)-1-pentynyl)quinoxaline] the value was 29.6 µM; for `CCOCCO[C@@H](C#Cc1nc2ccccc2nc1C#C[C@@H](CC)OCCOCC)CC` [Example 23, 2,3-bis((R)-3-(2-ethoxyethoxy)-1-pentynyl)quinoxaline], 54.7 µM.
Still for that read-out and setting: for `CCOCCO[C@H](C#Cc1nc2ccccc2nc1C#C[C@@H](CC)OCCOCC)CC` [Example 25, 2-((R)-3-(2-ethoxyethoxy)-1-pentynyl)-3-((S)-3-(2-ethoxyethoxy)-1-pentynyl)quinoxaline] the value was 34.2 µM; for `COC1(C#Cc2nc3ccccc3nc2C#CC2(OC)CCCC2)CCCC1` [Example 26, 2,3-bis(2-(1-methoxycyclopentyl)ethynyl)quinoxaline], 32 µM; for `CCOC(C)C#Cc1nc2ccccc2nc1Cl` (centres unmarked) [Example 29, 2-chloro-3-(3-ethoxy-1-butynyl)quinoxaline], 215 µM.
Turning to `COCCOCC#Cc1nc2ccccc2nc1C(C)(C)C` [Example 30, 2-t-butyl-3-(3-(2-methoxyethoxy)-1-propynyl)quinoxaline], half-maximal inhibition in series [1] (IC50) was put at 60.3 µM.
As for `CCOC(C)C#Cc1nc2ccc(C(C)=O)cc2nc1C#CC(C)OCC` (centres unmarked) [Example 33, 6-acetyl-2,3-bis(3-ethoxy-1-butynyl)quinoxaline], in series [1] (setting [6]), the half-inhibitory concentration (IC50) was 9.88 µM. Further, in series [4], the inhibition in vivo at 30 mg/kg was found to be 23%.
As for `COC(=O)c1nc(C#CC(C)OC)c(C#CC(C)OC)nc1C(=O)OC` (centres unmarked) [Example 53], the half-maximal inhibitory concentration (IC50) in series [1] (setting [6]) was 5.27 µM.
For the compound `COCCOC(C)C#Cc1nc(C(=O)OC)c(C(=O)OC)nc1C#CC(C)OCCOC` (centres unmarked) [Example 56], in series [1] (setting [6]), the IC50 was 13.4 µM. Besides, the ED50 was 17 mg/kg in series [2] and 12 mg/kg in series [5]. The inhibition in vivo at 30 mg/kg in series [4] came out at 80%.
For `COC(=O)c1nc(C#CC(OC)OC)c(C#CC(OC)OC)nc1C(=O)OC` [Example 59], in series [1] (setting [6]), the IC50 was 8.92 µM. For the same compound, the 50% effective dose (ED50) was 21 mg/kg in series [2] and 18 mg/kg in series [5]. In series [3], this compound came in with a median lethal dose (LD50) at 168 h above 1000 mg/kg. The inhibition in vivo at 30 mg/kg in series [4] was 79%.
On to `CCC#Cc1nc(C(=O)OC)c(C(=O)OC)nc1C#CC(C)OC` (centres unmarked) [Example 62], for which, in series [1] (setting [6]), the half-maximal inhibitory concentration (IC50) was 5.15 µM. For the same compound, the inhibition in vivo at 30 mg/kg in series [4] is 69%.
Consider `CCOC(=O)c1nc(C#CCOC)c(C#CCOC)nc1C(=O)OCC` [Example 69], for which the inhibition in vivo at 30 mg/kg in series [4] was determined as 70%.
As for `COC(C)C#Cc1nc(C#N)c(C#N)nc1C#CC(C)OC` (centres unmarked) [Example 73], in series [1] (setting [6]), the IC50 is 1.7 µM.
On to `CCCC#Cc1nc(C#N)c(C#N)nc1C#CCCOC` [Example 77], for which the half-inhibitory concentration (IC50) in series [1] (setting [6]) was 1.44 µM. The inhibition in vivo at 30 mg/kg in series [4] stood at 55%.
In the case of `CCCCC#Cc1nc(C#N)c(C#N)nc1C#CCCCC` [Example 89], the IC50 in series [1] (setting [6]) is 0.344 µM.
On the same count and under the same terms, for `CSCCC#Cc1nc(C#N)c(C#N)nc1C#CCCSC` [Example 95] the value was 0.613 µM.
Compound `CCCCC#Cc1nc(C#N)c(C#N)nc1C(=O)OCC` [Example 101] had a half-maximal inhibitory concentration (IC50) in series [1] of 5.31 µM.
`CCCCC#Cc1nc(C#N)c(C#N)nc1C(F)(F)F` [Example 102] showed a concentration for half-maximal inhibition (IC50) in series [1] of 3.95 µM.
For the compound `COCC#Cc1nc2ccccc2nc1C#CCOC` [Example 107], the values for the 50% effective dose (ED50) in series [2] and in series [5] were 30 mg/kg and 29 mg/kg, respectively.
`CCOCC#Cc1nc2ccccc2nc1C#CCOCC` [Example 108] gave an LD50 at 168 h in series [3] above 1000 mg/kg.
For the compound `COC(C)C#Cc1nc2ccccc2nc1C#CC(C)OC` (centres unmarked) [Example 111], in series [1] (setting [6]), the concentration for half-maximal inhibition (IC50) was 9.17 µM.
In the case of `CCOCCOC(C)C#Cc1nc2ccccc2nc1C#CC(C)OCCOCC` (centres unmarked) [Example 113], in series [3], the LD50 at 168 h was above 1000 mg/kg.
On the same count and under the same terms, for `CCOC(C#Cc1nc2ccccc2nc1C#CC(CC)OCC)CC` (centres unmarked) [Example 115] the value was above 1000 mg/kg.
In the case of `CCC(C#Cc1nc2ccccc2nc1C#CC(CC)OCCC(=O)OC)OCCC(=O)OC` (centres unmarked) [Example 123], the IC50 in series [1] (setting [6]) was 87.9 µM.
The same measure, in the same setting: then `CCC(C#Cc1cnc2ccccc2n1)OCCOC` (centres unmarked) [Example 127], with 326 µM.
Still for that read-out and setting: for `CCOC(C)C#Cc1nc2ccc(OC)cc2nc1C#CC(C)OCC` (centres unmarked) [Example 129] the value was 25.3 µM.
`COCCOCC#Cc1nc2ccc(OC)cc2nc1C#CCOCCOC` [Example 133]: the IC50 in series [1] (setting [6]) was 20.8 µM. Besides, the inhibition in vivo at 30 mg/kg in series [4] came to 44%.
Regarding `CCOC(C)C#Cc1nc2cccc(OC)c2nc1C#CC(C)OCC` (centres unmarked) [Example 140], the IC50 in series [1] (setting [6]) is 34 µM.
In the case of `CCC(C#Cc1nc2cccc(C)c2nc1C#CC(CC)OCCOC)OCCOC` (centres unmarked) [Example 144], the concentration for half-maximal inhibition (IC50) in series [1] (setting [6]) is 28.3 µM.
Regarding `CCOC(C)C#Cc1nc2cc(OC)c(OC)cc2nc1C#CC(C)OCC` (centres unmarked) [Example 145], the half-inhibitory concentration (IC50) in series [1] (setting [6]) was 25.1 µM.
Consider `CCOCCOC(C#Cc1nc2ccc(CO)cc2nc1C#CC(CC)OCCOCC)CC` (centres unmarked) [Example 151], for which the IC50 in series [1] (setting [6]) was 18.6 µM.
For the compound `CCCOCCOC(C)(C)C#Cc1nc2ccccc2nc1C#CC(C)(C)OCCOCCC` [Example 158, 2,3-bis(3-(2-n-propoxyethoxy)-3-methyl-1-butynyl)quinoxaline], the IC50 in series [1] (setting [6]) is 17.1 µM.
Take `CCOCCOC(C)(C)C#Cc1nc2ccc(Cl)cc2nc1C#CC(C)(C)OCCOCC` [Example 159, 6-chloro-2,3-bis(3-(2-ethoxyethoxy)-3-methyl-1-butynyl)quinoxaline]: the IC50 in series [1] (setting [6]) was 16.7 µM.

Usually IC50 stands for the concentration that gives 50% inhibition. One may read the ED50 as the midpoint of the dose-response relation. What is called LD50 is the dose at which mortality reaches 50%. A lower LD50 goes with greater toxicity.

Values taken from patent publication US5583227A, “Antiulcer compounds having a substituted alkynyl or quinoxaline nucleus and methods of making thereof” (Mochida Pharmaceutical Co. Ltd., priority 1994, dated 1996).
